Our source for the activity values is patent US20230357152A1 (priority 2020, published 2023).

Assay in all cases: microbe, parasite or virus in culture
Common to all, as to format: cell-based

In one assay the test system is Septoria tritici. Particulars: Zymoseptoria tritici, 168 h.
Another assay has as its system Fusarium culmorum. Particulars: 168 h.
In another assay the test system is Phytophthora infestans. The settings on record: 168 h, read-out: Fungal growth at 31 ppm (%) PHYTIN.

`CO/N=C(/C(=O)OC)c1cccc(C)c1CO/N=C(\C)c1cccc(C(F)(F)F)n1` [Example 1] gave an activity at 31 ppm in the assay on Septoria tritici of 10%.

On to `CNC(=O)/C(=N/OC)c1cccc(C)c1CO/N=C(\C)c1cccc(OC)n1` [Example 3], for which the activity at 31 ppm turned out to be 4% in the assay with Septoria tritici, 6% in the assay with Fusarium culmorum and 0% in the assay on Phytophthora infestans.

`CO/N=C(/C(=O)OC)c1cccc(C)c1CO/N=C(\C)c1cc(-c2ccc(Cl)cc2)sn1` [Example 7]: in the assay with Fusarium culmorum, the activity at 31 ppm was determined as 11%.

In the case of `CNC(=O)/C(=N/OC)c1cccc(C)c1CO/N=C(\C)c1cc(-c2ccc(Cl)cc2)sn1` [Example 8], the activity at 31 ppm in the assay on Phytophthora infestans amounted to 6%.

In the assay with Fusarium culmorum, `CO/N=C(/C(=O)OC)c1cccc(C(F)(F)F)c1CO/N=C(\C)c1cc(-c2ccc(Cl)cc2)on1` [Example 16] had an activity at 31 ppm of 19%.

Turning to `CNC(=O)/C(=N/OC)c1cccc(C(F)(F)F)c1CO/N=C(\C)c1cc(-c2ccc(Cl)cc2)on1` [Example 17], the figures for the activity at 31 ppm with Septoria tritici, with Fusarium culmorum and with Phytophthora infestans were 1%, 14% and 0%, respectively.

Compound `CO/N=C(/C(=O)OC)c1cccc(C)c1CO/N=C(\C)c1cc(-c2cccc(C(F)(F)F)c2)on1` [Example 19] gave an activity at 31 ppm in the assay on Fusarium culmorum of 20%.

As for `CNC(=O)/C(=N/OC)c1cccc(C)c1CO/N=C(\C)c1cc(-c2ccc(Cl)cc2)on1` [Example 20], the figures for the activity at 31 ppm with Fusarium culmorum and with Phytophthora infestans were 17% and 3%, respectively.

`CNC(=O)/C(=N/OC)c1cccc(C)c1CO/N=C(\C)c1cc(C)ccn1` [Example 26]: the values for the activity at 31 ppm in the assay with Septoria tritici, with Fusarium culmorum and in the assay with Phytophthora infestans were 7%, 12% and 0%, respectively.

In the case of `CO/N=C(/C(=O)OC)c1cccc(C)c1CO/N=C(\C)c1cc(-c2cccc(C(F)(F)F)c2)sn1` [Example 35], the activity at 31 ppm in the assay on Fusarium culmorum is 20%.

Take `CNC(=O)/C(=N/OC)c1cccc(C)c1CO/N=C(\C)c1cc(-c2ccccc2)sn1` [Example 38]: the activity at 31 ppm in the assay on Fusarium culmorum is 16%; in the assay with Phytophthora infestans it was 6%.

In the case of `CO/N=C(/C(=O)OC)c1cccc(C)c1CO/N=C(\C)c1ncsc1C(F)(F)F` [Example 40], the activity at 31 ppm in the assay with Septoria tritici was 0%; in the assay on Phytophthora infestans it was 8%.

Turning to `CO/N=C(/C(=O)OC)c1cccc(C)c1CO/N=C(\C)c1nccc2ccccc12` [Example 44], the values for the activity at 31 ppm with Septoria tritici and in the assay with Phytophthora infestans were 2% and 15%, respectively.

Regarding `CNC(=O)/C(=N/OC)c1cccc(C)c1CO/N=C(\C)c1nccc2ccccc12` [Example 45], the activity at 31 ppm in the assay with Septoria tritici amounted to 6%; with Fusarium culmorum it was 4%; in the assay on Phytophthora infestans it was 0%.

For the compound `CO/N=C(/C(=O)OC)c1cccc(C)c1CO/N=C(\C)c1cn(C)nc1C(F)(F)F` [Example 51], the activity at 31 ppm in the assay with Septoria tritici worked out at 3%; in the assay on Fusarium culmorum it was 8%.

With `CNC(=O)/C(=N/OC)c1cccc(C)c1CO/N=C(\C)c1cc(OC)ccn1` [Example 56], the activity at 31 ppm came to 11% in the assay on Fusarium culmorum and 0% with Phytophthora infestans.

For `CNC(=O)/C(=N/OC)c1cccc(C)c1CO/N=C(\C)c1cc(C(F)(F)F)nc(C)n1` [Example 58], the activity at 31 ppm in the assay on Septoria tritici amounted to 21%; in the assay with Fusarium culmorum, 17%; with Phytophthora infestans, 11%.

Regarding `CNC(=O)/C(=N/OC)c1cccc(C)c1CO/N=C(\C)c1cc2ccccc2cn1` [Example 67], the activity at 31 ppm in the assay on Septoria tritici is 5%; with Fusarium culmorum, 9%; with Phytophthora infestans it was 0%.

For `CO/N=C(/C(=O)OC)c1cccc(C)c1CO/N=C(\C)c1ccc(C#CC2CC2)nc1` [Example 68], the figures for the activity at 31 ppm with Fusarium culmorum and in the assay with Phytophthora infestans were 13% and 3%, respectively.

For `CO/N=C(/C(=O)OC)c1cccc(C)c1CO/N=C(\C)c1nccc(C(F)(F)F)n1` [Example 71], the activity at 31 ppm in the assay on Septoria tritici and in the assay on Phytophthora infestans was 0% in each case.

On to `CNC(=O)/C(=N/OC)c1cccc(C)c1CO/N=C(\C)c1nccc(C(F)(F)F)n1` [Example 73], for which the activity at 31 ppm in the assay on Septoria tritici was found to be 21%; in the assay with Fusarium culmorum, 13%; with Phytophthora infestans, 1%.

`CNC(=O)/C(=N/OC)c1cccc(C)c1CO/N=C(\C)c1cncc(/C(C)=N/OC)n1` [Example 83]: in the assay with Fusarium culmorum, the activity at 31 ppm is 21%.

As for `CO/N=C(/C(=O)OC)c1cccc(C)c1CO/N=C(\C)c1ccc(Cl)nn1` [Example 91], the activity at 31 ppm with Fusarium culmorum was 16%; with Phytophthora infestans, 0%.

`CO/N=C(/C(=O)OC)c1cccc(C)c1CO/N=C(\C)c1cnc(C)c(F)c1` [Example 100]: the activity at 31 ppm was found to be 19% with Septoria tritici, 12% in the assay with Fusarium culmorum and 0% in the assay on Phytophthora infestans.

For `CNC(=O)/C(=N/OC)c1cccc(C)c1CO/N=C(\C)c1cnc(C)c(F)c1` [Example 101], the figures for the activity at 31 ppm with Fusarium culmorum and with Phytophthora infestans were 15% and 0%, respectively.

Turning to `CO/N=C(/C(=O)OC)c1cccc(C)c1CO/N=C(\C)c1cncn1C` [Example 102], the activity at 31 ppm in the assay with Phytophthora infestans was found to be 0%.
